Test results: the NIST ThermoML archive (doi:10.1021/acs.jced.6b01038)
Numbers after ± are expanded uncertainties.

Columns and labels:
[1] = refractive index (Na D-line) (dimensionless); settings: 298.15 K; 101.3 kPa; Liquid; Standard Abbe refractometry
[2] = 298.15 K; 101.3 kPa; Liquid; Vibrating tube method

Row | SMILES | refractive index [1] | mass density [2] [kg/m3]
1 | CCN(CC)CCO [(diethylamino)ethanol] | 1.43833 ± 0.001 | 880 ± 5
2 | CNCCCN [N-methyl-1,3-diaminopropane] | 1.44564 ± 0.0012 | 848 ± 5
3 | CN(CCO)CCO [N-methyldiethanolamine] | 1.4674 ± 0.0011 | 1037 ± 2
4 | O [water] | 1.33249 ± 0.001 | 
